Laboratory results reported in the NIST ThermoML archive (doi:10.1016/j.fluid.2018.08.012).
Several values for one entry are separate records, joined by “and”; a condition that tells them apart may be missing. Equal entries are not always repeated.

Experiment: mn = molality of the nth substance listed, in mol/kg
Details: Fluid (supercritical or subcritical phases), Vibrating tube method, m1 = 0.2322

S=C=S [carbon disulfide] + O=C=O
Details | mass density
324.09 K, 5020 kPa | 107.03 kg/m3
324.09 K, 5037.7 kPa | 107.14 kg/m3
324.09 K, 7541 kPa | 199.79 kg/m3
324.09 K, 7551.5 kPa | 199.54 kg/m3
324.09 K, 10053 kPa | 403.53 kg/m3
324.09 K, 10060 kPa | 402.21 kg/m3
324.09 K, 12570 kPa | 624.02 kg/m3
324.09 K, 12604 kPa | 625.07 kg/m3
324.09 K, 15125 kPa | 707.48 kg/m3
324.09 K, 15142 kPa | 707.56 kg/m3
324.09 K, 17653 kPa | 755.16 kg/m3
324.09 K, 17669 kPa | 755.21 kg/m3
324.09 K, 20182 kPa | 789.28 kg/m3
324.09 K, 20197 kPa | 789.34 kg/m3
324.09 K, 22699 kPa | 815.92 kg/m3
324.09 K, 22712 kPa | 815.94 kg/m3
324.09 K, 25212 kPa | 837.95 kg/m3
324.09 K, 25226 kPa | 837.97 kg/m3
324.09 K, 27728 kPa | 856.85 kg/m3
324.09 K, 27741 kPa | 856.86 kg/m3
324.09 K, 30237 kPa | 873.42 kg/m3
324.09 K, 30252 kPa | 873.43 kg/m3
324.09 K, 32734 kPa | 888.17 kg/m3
324.09 K, 32750 kPa | 888.17 kg/m3
324.09 K, 35219 kPa | 901.47 kg/m3
324.09 K, 35227 kPa | 901.44 kg/m3
349.43 K, 5049.6 kPa | 92.26 kg/m3
349.43 K, 5059.9 kPa | 92.17 kg/m3
349.43 K, 7561.3 kPa | 154.46 kg/m3
349.43 K, 7565.2 kPa | 155.4 kg/m3
349.43 K, 10072 kPa | 237.91 kg/m3
349.43 K, 10079 kPa | 236.77 kg/m3
349.43 K, 12659 kPa | 351.82 kg/m3
349.43 K, 12682 kPa | 350.77 kg/m3
349.43 K, 15194 kPa | 474.54 kg/m3
349.43 K, 15210 kPa | 471.73 kg/m3
349.43 K, 17724 kPa | 568.76 kg/m3
349.43 K, 17738 kPa | 565.77 kg/m3
349.43 K, 20245 kPa | 633.49 kg/m3
349.43 K, 20260 kPa | 630.9 kg/m3
349.43 K, 22769 kPa | 680.4 kg/m3
349.43 K, 22783 kPa | 678.14 kg/m3
349.43 K, 25280 kPa | 716.41 kg/m3
349.43 K, 25300 kPa | 714.54 kg/m3
349.43 K, 27790 kPa | 745.77 kg/m3
349.43 K, 27805 kPa | 744.03 kg/m3
349.43 K, 30301 kPa | 770.42 kg/m3
349.43 K, 30313 kPa | 768.82 kg/m3
349.43 K, 32807 kPa | 791.68 kg/m3
349.43 K, 32815 kPa | 790.19 kg/m3
349.43 K, 35294 kPa | 808.86 kg/m3
349.43 K, 35296 kPa | 810.28 kg/m3
374.78 K, 5066.1 kPa | 82.47 kg/m3
374.78 K, 5070.7 kPa | 82.42 kg/m3
374.78 K, 7581.5 kPa | 133.35 kg/m3
374.78 K, 7585 kPa | 133.32 kg/m3
374.78 K, 10086 kPa | 191.97 kg/m3
374.78 K, 10088 kPa | 191.92 kg/m3
374.78 K, 15040 kPa | 335.44 kg/m3
374.78 K, 15062 kPa | 335.78 kg/m3
374.78 K, 17568 kPa | 413.55 kg/m3
374.78 K, 17587 kPa | 413.86 kg/m3
374.78 K, 20094 kPa | 484.4 kg/m3
374.78 K, 20111 kPa | 484.48 kg/m3
374.78 K, 22615 kPa | 543.66 kg/m3
374.78 K, 22634 kPa | 543.72 kg/m3
374.78 K, 25138 kPa | 592.09 kg/m3
374.78 K, 25153 kPa | 592 kg/m3
374.78 K, 27657 kPa | 631.81 kg/m3
374.78 K, 27672 kPa | 631.68 kg/m3
374.78 K, 30176 kPa | 665.02 kg/m3
374.78 K, 30185 kPa | 664.78 kg/m3
374.78 K, 32689 kPa | 693.03 kg/m3
374.78 K, 32690 kPa | 693.42 kg/m3
374.78 K, 35184 kPa | 717.46 kg/m3
374.78 K, 35192 kPa | 717.92 kg/m3
400.5 K, 5077 kPa | 75.32 kg/m3
400.5 K, 5080.3 kPa | 74.8 kg/m3
400.5 K, 7594.6 kPa | 118.07 kg/m3 and 118.35 kg/m3
400.5 K, 10099 kPa | 166.1 kg/m3
400.5 K, 10100 kPa | 165.54 kg/m3
400.5 K, 15048 kPa | 272.65 kg/m3
400.5 K, 15074 kPa | 273.42 kg/m3
400.5 K, 17570 kPa | 330.78 kg/m3
400.5 K, 17602 kPa | 331.7 kg/m3
400.5 K, 20096 kPa | 388.17 kg/m3
400.5 K, 20129 kPa | 389.15 kg/m3
400.5 K, 22617 kPa | 441.87 kg/m3
400.5 K, 22654 kPa | 442.82 kg/m3
400.5 K, 25139 kPa | 490.19 kg/m3
400.5 K, 25176 kPa | 491.09 kg/m3
400.5 K, 27660 kPa | 532.79 kg/m3
400.5 K, 27688 kPa | 533.55 kg/m3
400.5 K, 30177 kPa | 569.95 kg/m3
400.5 K, 30206 kPa | 570.64 kg/m3
400.5 K, 32686 kPa | 602.4 kg/m3
400.5 K, 32712 kPa | 602.99 kg/m3
400.5 K, 35192 kPa | 631.01 kg/m3
400.5 K, 35205 kPa | 631.44 kg/m3
